Experimental data reported in patent US20080027001A1, “NOGO RECEPTOR FUNCTIONAL MOTIFS, PEPTIDE MIMETICS, AND MUTATED FUNCTIONAL MOTIFS RELATED THERETO, AND METHODS OF USING THE SAME” (priority 2006, published 2008).
Where “and” joins values, the source holds several entries; their conditions need not be identical. Identical values can stand only once. Entries after “also recorded” stand apart in the source; their conditions may differ. Bridges are numbered along the chain shown (N, C = ends).

Assays:
cerebellar neurons [1] = assay: Neurite outgrowth assay, inhibition by soluble MAG-Fc; assay type: cell-based, rat; conditions: for antagonism of MAG-mediated inhibition of axonal growth / effect on MAG-Fc-suppressed neurite outgrowth: peptide 100 μg/ml; for antagonism of MAG-mediated inhibition of axonal growth: MAG-Fc 20 μg/ml (FIG. 6B); for effect on MAG-Fc-suppressed neurite outgrowth: MAG-Fc 25 μg/ml (FIG. 5A); for peptide concentration with maximal effects on neurite outgrowth / peptide concentration with significant effects on neurite outgrowth: MAG-Fc 20 μg/ml (FIG. 6A); for antagonism of inhibitory activity of MAG-Fc: peptide 50 μg/ml (60 μM); for antagonism of inhibitory activity of MAG-Fc / efficacy of peptide relative to NRL2b over a range of concentrations: MAG-Fc 20 μg/ml; for efficacy of peptide relative to NRL2b over a range of concentrations: FIG. 6C, 6D, position 2 effect at 25-50 μg/ml
Method: (§1) Cerebellar neurons isolated from postnatal day ⅔ rat pups were cultured over monolayers of 3T3 cells (Doherty et al. (1991) Neuron 6(2):247-58) essentially as previously described (Williams et al. (1994) Neuron 13(3):583-94). Monolayers were established by seeding ˜80,000 cells into individual chambers of an eight-chamber tissue culture slide coated with poly-L-lysine and fibronectin. The cell lines, and monolayers, were maintained in Dulbecco's modified Eagle's medium supplemented with 10% fetal calf serum (FCS). Cocultures were established by removing the media from the monolayers and seeding ˜6000 dissociated cerebellar neurons into each well in SATO medium (modified from Doherty et al. (1990) Neuron 5(2):209-19; Dulbecco's modified Eagle's medium supplemented with 2% FBS, 33% bovine albumin, 0.62 μg/ml progesterone, 161 μg/ml putrescine, 4 μg/ml L-thyroxine, 0.387 μg/ml selenium, and 3.37 μg/ml tri-iodo-thyronine (components from Sigma-Aldrich, St. Louis, Mo.)). Monolayers were established for 24 hours prior to addition of the neurons and the cultures were maintained for ˜23-27 hr. Following careful fixation with 4% paraformaldehyde, the neurons were stained with a GAP-43 antibody, and the mean length of the longest neurite per cell was measured for ˜120-150 neurons, again as previously described (Williams et al. (1994) supra). For neurite outgrowth on substrate-bound MAG, 96-well plates were coated with a thin layer of nitrocellulose (Bio-Rad, Hercules, Calif.) before incubating with 1 μg/ml of MAG(d1-5) (a chimeric construct containing domains 1-5 of the extracellular portion of MAG) at 4° C. overnight. Wells were subsequently coated with 17 μg/ml of poly-D-lysine (Sigma, St. Louis, Mo.), followed by incubation in Dulbecco's modified Eagle's medium containing 10% FCS. Cerebellar granule neurons were dissociated and seeded at a density of 10^4 cells per well. Cells were cultured for 18-20 h before being fixed with 4% paraformaldehyde and stained with a neuronal-specific anti-III-tubulin antibody, Tuj 1 (Covance, Emeryville, Calif.). The average of total neurite lengths from each neuron was measured automatically by the MetaXpress Neurite Outgrowth module (Molecular Devices, Sunnyvale, Calif.) from at least 200 neurons per well, in triplicate wells per experiment. Results were repeated independently more than three times.
(§2) Synthetic peptides were all obtained from a commercial supplier (Multiple Peptide Systems, San Diego, Calif.). All peptides were purified to the highest grade by reverse-phase HPLC and obtained at the highest level of purity (>97%). With all peptides, there was no indication of higher molecular weight species. Where peptide sequences are underlined, this denotes a peptide that has been cyclized via a disulfide bond between the given cysteine residues. All peptides were acetylated (e.g., denoted with “N-Ac-”) and amide blocked (e.g., denoted with “—NH2”). Recombinant MAG-Fc chimera was obtained from R&D Systems (Minneapolis, Minn.) and used at final concentrations ranging from 5-25 μg/ml. The monoclonal antibody to GT1b (clone GMR5) was obtained from Seikagaku America (Falmouth, Mass.) and was used at a final concentration of 20 μg/ml. All reagents were diluted into the coculture media and, in general, added to the cultures just prior to the plating of the neurons. GT1b and GM1 were obtained as gifts from Dr. Gino Toffano (Libero, Italy) and University of Milan, and asialo-GM1 was obtained from Sigma (St. Louis, Mo.). The recombinant NgR1(310)-fc and MAG(d1-5) chimeras were expressed and purified in-house. Pharmacological reagents were obtained from Calbiochem (La Jolla, Calif.) and/or Sigma. For reagents used in cell-surface NgR binding assays, please see Examples 1.5 and 1.7. For reagents used in the cell surface p75NTR-NgR-AP binding assay, please see Example 1.13.
(§3) In contrast, a soluble MAG-Fc chimera inhibits neurite outgrowth in a manner that depends upon both ganglioside and NgR function. […]

cerebellar neurons [2] = assay: Neurite outgrowth assay, inhibition by GT1b antibody; assay type: cell-based, rat; conditions: peptide 100 μg/ml; antibody tested at up to 40 μg/ml
Method: Cerebellar neurons isolated from postnatal day ⅔ rat pups were cultured over monolayers of 3T3 cells (Doherty et al. (1991) Neuron 6(2):247-58) essentially as previously described (Williams et al. (1994) Neuron 13(3):583-94). Monolayers were established by seeding ˜80,000 cells into individual chambers of an eight-chamber tissue culture slide coated with poly-L-lysine and fibronectin. The cell lines, and monolayers, were maintained in Dulbecco's modified Eagle's medium supplemented with 10% fetal calf serum (FCS). […] Following careful fixation with 4% paraformaldehyde, the neurons were stained with a GAP-43 antibody, and the mean length of the longest neurite per cell was measured for ˜120-150 neurons, again as previously described (Williams et al. (1994) supra). […] The average of total neurite lengths from each neuron was measured automatically by the MetaXpress Neurite Outgrowth module (Molecular Devices, Sunnyvale, Calif.) from at least 200 neurons per well, in triplicate wells per experiment. […]

cerebellar neurons [3] = assay: Neurite outgrowth assay, control media (basal outgrowth); assay type: cell-based, rat; conditions: for effect on basal neurite outgrowth: peptide 100 μg/ml, without MAG-Fc
Method: as §1, §2, §3

NgR1(310)-fc = biological target: T1, NgR1(310)-fc (Homo sapiens, UniProt Q9BZR6); assay: Analytical ultracentrifugation (sedimentation velocity), wild type receptor; assay type: binding; conditions: ganglioside 0 to 48 μM (FIG. 3A-C)
T1 construct: made in house; host or cells: mammalian expression vector (pSMED2)
Excerpt: Human Nogo Receptor 1 (NgR1)(310)-fc point mutants (FRG-1 (R151E); FRG-2 (R279E); FRG-3 (R199E), and FRG-4 (R151E/R279E/R199E)) were constructed by Genewiz (North Brunswick, N.J.) using their site-directed mutagenesis technology. The template used to construct all the described mutants was wild type human NgR1(310)-fc (SEQ ID NO:59), which was generated by fusing a nucleotide sequence corresponding to the first 310 amino acid of Human Nogo Receptor 1 to a human Fc fragment in a mammalian expression vector (the sequence of wild type NgR1(310)-fc and the expression vector is set forth in SEQ ID NO:60 and a schematic of the expression vector is shown in FIG. 11). […]
Sedimentation velocity experiments were performed on a Beckman XLI/XLA analytical ultracentrifuge. […] Scans were recorded at 20° C. with a rotor speed of 35,000 rpm, and the signal was detected at 230 nm with a spacing of 0.006 in the continuous mode. Sedimentation profiles were analyzed by the program Sedfit (Schuck (2000) Biophys. J. 78:1606-19) to obtain the sedimentation coefficient distributions. The solvent density (1.006) and partial specific volume (0.72) were calculated using the program Sednterp (Laue et al. (1992) Analytical Ultracentrifugation in Biochemistry and Polymer Science (Harding, S. E., Towe, A. J. and Horton, J. C., eds.) pp. 90-125, Royal Society of Chemistry, Cambridge, U.K). […]

[4] = without MAG-Fc (data not shown)

T1 sequence (Q9BZR6 with tags, fused parts or gaps limits assumed): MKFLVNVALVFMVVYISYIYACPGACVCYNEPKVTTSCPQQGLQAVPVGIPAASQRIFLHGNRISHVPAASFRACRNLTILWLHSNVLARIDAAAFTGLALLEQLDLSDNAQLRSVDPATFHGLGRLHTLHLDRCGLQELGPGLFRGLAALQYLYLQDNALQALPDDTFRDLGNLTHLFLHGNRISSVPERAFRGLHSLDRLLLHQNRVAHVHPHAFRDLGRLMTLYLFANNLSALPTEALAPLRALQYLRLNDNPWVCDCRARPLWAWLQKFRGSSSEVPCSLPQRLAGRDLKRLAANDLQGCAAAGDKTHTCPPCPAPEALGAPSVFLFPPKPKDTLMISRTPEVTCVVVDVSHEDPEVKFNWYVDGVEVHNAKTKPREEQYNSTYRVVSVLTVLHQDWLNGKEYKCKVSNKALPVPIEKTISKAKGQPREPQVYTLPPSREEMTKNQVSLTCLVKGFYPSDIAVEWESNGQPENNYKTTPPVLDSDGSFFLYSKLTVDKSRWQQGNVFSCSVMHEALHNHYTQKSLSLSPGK

Substance: N-Ac-CQKFRAC-NH2 (disulfide 1-7 (inferred))
- antagonism of MAG-mediated inhibition of axonal growth (cerebellar neurons [1]): ineffective

Substance: N-Ac-CLQKFRGSSC-NH2 (disulfide 1-10 (inferred)) [NRL2]
- antagonism of GT1b antibody inhibition of neurite outgrowth (cerebellar neurons [2]): fully inhibited the response; also recorded: failed to inhibit neurite outgrowth
- effect on basal neurite outgrowth (cerebellar neurons [3]): no effect
- effect on neurite outgrowth in control media (cerebellar neurons [3]; tested at up to 200 μg/ml): no significant effect
- peptide concentration at which response reaches plateau (cerebellar neurons [1]; MAG-Fc 25 μg/ml (FIG. 5B)): ~45 µM
- peptide concentration with near maximal inhibitory activity (cerebellar neurons [1]; MAG-Fc present): ~45 µM
- effect on MAG-Fc-suppressed neurite outgrowth (cerebellar neurons [1]): failed to substantially inhibit neurite outgrowth

Substance: asialo-GM1
- interaction with NgR1(310)-fc (shift of sedimentation coefficient) (NgR1(310)-fc): did not interact; also recorded: No change in sedimentation coefficient

Substance: N-Ac-CQKFAGC-NH2 (disulfide 1-7 (inferred))
- antagonism of MAG-mediated inhibition of axonal growth (cerebellar neurons [1]): ineffective

Substance: N-Ac-CSLPQRLAC-NH2 (disulfide 1-9 (inferred)) [NRL3]
- effect on basal neurite outgrowth (cerebellar neurons [3]): no effect
- effect on MAG-Fc-suppressed neurite outgrowth (cerebellar neurons [1]): no effect

Substance: N-Ac-CKFRGSC-NH2 (disulfide 1-7 (inferred)) [NRL2a]
- effect on neurite outgrowth in control media (cerebellar neurons [3]; [4]): no effect
- peptide concentration with maximal effects on neurite outgrowth (cerebellar neurons [1]): 50 μg/ml and 60 μM
- peptide concentration with significant effects on neurite outgrowth (cerebellar neurons [1]): 25 μg/ml and 30 μM
- antagonism of inhibitory activity of MAG-Fc (cerebellar neurons [1]): effectively antagonized

Substance: N-Ac-CYNEPKVTC-NH2 (disulfide 1-9 (inferred)) [NRL1]
- effect on basal neurite outgrowth (cerebellar neurons [3]): no effect
- effect on MAG-Fc-suppressed neurite outgrowth (cerebellar neurons [1]): no effect

Substance: N-Ac-CQKFRGC-NH2 (disulfide 1-7 (inferred)) [NRL2b]
- effect on neurite outgrowth in control media (cerebellar neurons [3]; [4]): no effect
- peptide concentration with maximal effects on neurite outgrowth (cerebellar neurons [1]): 50 μg/ml and 60 μM
- peptide concentration with significant effects on neurite outgrowth (cerebellar neurons [1]): 25 μg/ml and 30 μM
- antagonism of inhibitory activity of MAG-Fc (cerebellar neurons [1]): effectively antagonized

Substance: N-Ac-CQAFRGC-NH2 (disulfide 1-7 (inferred))
- efficacy of peptide relative to NRL2b over a range of concentrations (cerebellar neurons [1]): no obvious effect on the efficacy of the peptide
- antagonism of MAG-mediated inhibition of axonal growth (cerebellar neurons [1]): as effective as NRL2b

Substance: N-Ac-CQKARGC-NH2 (disulfide 1-7 (inferred))
- efficacy of peptide relative to NRL2b over a range of concentrations (cerebellar neurons [1]): reduced efficacy by about two-fold
- antagonism of MAG-mediated inhibition of axonal growth (cerebellar neurons [1]): as effective as NRL2b

Substance: N-Ac-CAGRDLKRC-NH2 (disulfide 1-9 (inferred)) [NRL4]
- effect on basal neurite outgrowth (cerebellar neurons [3]): no effect
- effect on MAG-Fc-suppressed neurite outgrowth (cerebellar neurons [1]): no effect

Substance: QKFRG (listed as Homo sapiens)
- antagonism of MAG-mediated inhibition of axonal growth (cerebellar neurons [1]): did not antagonize
